Data set [1] is described as follows: Plasma stability, incubation with mouse blood plasma, LC-MS. In kind it is in vitro ADME. The note with it: over the 24 h period, equivalent of 50 mg/kg. The procedure: (§1) Representative HE images of liver and spleen from mice treated with vehicle or ARD150. Images from vehicle and the highest doses of ARD150 (125 mg/kg) were shown (B). […] Three biological replicates for each time point.
The potential toxicity of RWR-18 was tested using 9-week-old Balb/c female mice. The mice were injected (i.p.) with vehicle or 10 mg/kg, 25 mg/kg, and 50 mg/kg of RWR-18 (daily for 7 days, 3 mice/group). The body weight was measured daily for 21 days. The liver, spleen, heart, lung, and kidney were collected for macroscopic and histological examination. […] Preliminary plasma kinetic studies were performed. Following the incubation of the equivalent of 50 mg/kg of RWR-18 with blood plasma from mice at 10 min, 30 min, 1 h, 4 h, 16 h, and 24 h, we measured the plasma levels of RWR-18 by LC-MS.

For another data set, the system named is ERα signaling. The data set can be described thus: qRT-PCR of ERα target genes after E2 treatment. The conditions noted are these: pre-treatment 5 and 10 μM. In kind it is cell-based. On the procedure:
The mRNA levels of GREB1, PGR, ARID4B, and MYD88 from MCF7 (A) and MCF7 Y537S cells (B) pre-treated with RWR-18 (0, 5 and 10 μM, 1 h) followed by +E2 treatment (10 nM, 4 h) were analyzed by qRT-PCR. Data are means±SEM from three biological replicate. ***, P<0.001. ns, not significant.
Consistent with knockout of ARID4B inhibited E2-induced and constitutive expression of ERα target genes, pre-treatment with RWR-18 (5 and 10 μM) abolished the induction of PGR and GREB1 genes by E2 in MCF7 and ZR75-1 cells (FIG. 18).
For orientation: In qPCR the cycle at which signal appears reflects the starting amount.

A further data set has as its target T1, ARID4B (Homo sapiens, UniProt Q4LE39).
T1 construct: endogenous in cells; host or cells: MCF7
T1 sequence (Q4LE39 1-1312): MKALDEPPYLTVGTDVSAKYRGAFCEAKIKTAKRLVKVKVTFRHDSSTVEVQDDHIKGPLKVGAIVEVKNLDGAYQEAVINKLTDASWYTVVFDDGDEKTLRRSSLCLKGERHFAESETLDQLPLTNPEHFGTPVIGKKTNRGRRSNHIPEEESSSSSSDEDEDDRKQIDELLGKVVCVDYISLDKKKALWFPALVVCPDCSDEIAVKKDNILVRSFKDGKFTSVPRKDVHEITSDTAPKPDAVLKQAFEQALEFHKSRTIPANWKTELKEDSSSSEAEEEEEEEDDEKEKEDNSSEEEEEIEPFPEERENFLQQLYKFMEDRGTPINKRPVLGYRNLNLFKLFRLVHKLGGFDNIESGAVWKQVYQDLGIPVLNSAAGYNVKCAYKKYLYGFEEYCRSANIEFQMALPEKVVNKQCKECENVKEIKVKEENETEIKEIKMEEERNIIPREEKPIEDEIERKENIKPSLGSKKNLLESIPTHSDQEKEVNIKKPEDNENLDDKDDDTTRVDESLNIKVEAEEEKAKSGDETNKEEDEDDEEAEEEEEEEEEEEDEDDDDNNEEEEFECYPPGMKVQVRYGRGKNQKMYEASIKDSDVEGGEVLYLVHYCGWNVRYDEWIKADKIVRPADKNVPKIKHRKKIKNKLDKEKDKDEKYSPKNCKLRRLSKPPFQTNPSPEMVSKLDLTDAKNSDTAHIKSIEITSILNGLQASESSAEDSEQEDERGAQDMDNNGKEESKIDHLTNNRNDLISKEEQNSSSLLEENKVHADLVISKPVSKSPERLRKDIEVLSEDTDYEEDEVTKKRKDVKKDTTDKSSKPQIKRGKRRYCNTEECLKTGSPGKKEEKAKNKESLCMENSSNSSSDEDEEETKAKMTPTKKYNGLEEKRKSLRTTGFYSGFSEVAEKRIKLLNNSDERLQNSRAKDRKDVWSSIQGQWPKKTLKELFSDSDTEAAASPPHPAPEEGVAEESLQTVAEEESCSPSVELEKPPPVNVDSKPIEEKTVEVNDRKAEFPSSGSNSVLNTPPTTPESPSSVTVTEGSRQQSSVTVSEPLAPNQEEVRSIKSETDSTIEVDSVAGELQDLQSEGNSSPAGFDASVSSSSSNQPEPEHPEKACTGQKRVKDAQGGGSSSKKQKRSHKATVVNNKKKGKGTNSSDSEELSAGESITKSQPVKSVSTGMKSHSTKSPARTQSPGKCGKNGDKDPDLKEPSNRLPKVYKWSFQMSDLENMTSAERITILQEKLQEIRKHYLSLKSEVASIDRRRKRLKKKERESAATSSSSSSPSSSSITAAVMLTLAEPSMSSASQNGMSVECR
The data set can be described thus: Cellular thermal shift assay (CETSA), endogenous ARID4B in MCF7 cells. The conditions noted are these: 10 μM, 2 h, 49-52° C. without compound. In kind it is cell-based. On the procedure: (B-C) show cells expressing HA-ARID4B (C) or HA-ARID4BIC (D) treated or not with ARD150 (10 μM) for 2 h were used for CESTA. […] (D-E) show cells expressing HA-ARID4B (D) or Flag-ARID4A (E) treated or not with RWR-18 (10 μM) for 2 h were used for CESTA. […] Data are means±SEM from three experiments. *P<0.05, **P<0.01, ns, not significant.
Using CETSA (cellular thermal shift assay) to examine whether ARD150 or RWR-18 binds to ARID4B, MCF7 cells treated or not with ARD150 or RWR-18 for 2 h were collected, followed by heating at 46, 49, 52, 55, and 58° C. to denature and precipitate ARID4B protein, cell lysis, removal of cell debris and aggregates by centrifugation, and finally detection of remaining thermostable ARID4B protein by western blot. The ARID4B aggregation temperatures without ARD150 were determined to be 49-52° C., but shifted to 52-55° C. after treatment with ARD150 and even more so with RWR-18 (FIG. 15A-D). To determine whether ARD150 and RWR-18 targets the chromodomain of ARID4B, CESTA was performed using chromodomain deletion mutant (ARID4BAC). HEK-293T cells expressing HA-ARID4B or HA-ARID4BAC were treated or not with ARD150 (10 μM) for 2 h and processed for CESTA.

A short description of data set [2]: Tolerability of ARD150 in mice. In kind it is in vivo. The note with it: 125 mg/kg. On the procedure:
as §1
The rational development of a small molecule inhibitor (SMI) of a given protein-protein pathway involves a multidisciplinary approach: computational studies, chemical synthesis, characterization of compounds, and biological characterization. ARID4B lacks a defined crystal structure which requires a heavier emphasis on in silico studies to develop SMIs for this pathway. […] Initial biological characterization through cell-based assays and in vitro/in vivo studies have shown that ARD150 targets ARID4B and is tolerable in mice at extremely high concentrations (125 mg/kg). […] Thus, even though ARD150 is a first-in-class inhibitor, further optimization is necessary to improve its characteristics as a theoretical treatment option for endocrine-resistant breast cancer.

Data on two compounds can be found in patent US20250099405A1, “COMPOSITIONS, METHODS, AND DEVELOPMENT OF ARID4B INHIBITORS” (University of Kentucky Research Foundation, priority 2022, published 2025).

As to `O=C(COc1ccc(OCc2ccccc2)cc1)NCCCN1CCOCC1` [RWR-18], in data set [1], the “reduction in peak area in mouse blood plasma” value is listed as around 20%. For the same compound, the “levels of ARID4B or MYD88 mRNA” value in the data set on ERα signaling is given as “not affected”. Also, in the data set on ERα signaling (MCF7 and ZR75-1 cells), the “induction of PGR and GREB1 genes by E2” value is “abolished”.
Take `COc1ccc(C(=O)NCCCN2CCOCC2)cc1OC` [ARD150]: the ARID4B aggregation temperatures on ARID4B is 52-55 °C. In addition, the tolerability in mice result in data set [2] is “tolerable”.
